For ten molecules, EC30 results are on record in patent publication US10758534B2 (Vertex Pharmaceuticals Incorporated, priority 2014, dated 2020).

The experiment deals with T1, F508del (Homo sapiens, UniProt P13569, DEL508-508).
T1 construct: expressed in transfected cells
T1 sequence (P13569 with tags, fused parts or gaps DEL508-508): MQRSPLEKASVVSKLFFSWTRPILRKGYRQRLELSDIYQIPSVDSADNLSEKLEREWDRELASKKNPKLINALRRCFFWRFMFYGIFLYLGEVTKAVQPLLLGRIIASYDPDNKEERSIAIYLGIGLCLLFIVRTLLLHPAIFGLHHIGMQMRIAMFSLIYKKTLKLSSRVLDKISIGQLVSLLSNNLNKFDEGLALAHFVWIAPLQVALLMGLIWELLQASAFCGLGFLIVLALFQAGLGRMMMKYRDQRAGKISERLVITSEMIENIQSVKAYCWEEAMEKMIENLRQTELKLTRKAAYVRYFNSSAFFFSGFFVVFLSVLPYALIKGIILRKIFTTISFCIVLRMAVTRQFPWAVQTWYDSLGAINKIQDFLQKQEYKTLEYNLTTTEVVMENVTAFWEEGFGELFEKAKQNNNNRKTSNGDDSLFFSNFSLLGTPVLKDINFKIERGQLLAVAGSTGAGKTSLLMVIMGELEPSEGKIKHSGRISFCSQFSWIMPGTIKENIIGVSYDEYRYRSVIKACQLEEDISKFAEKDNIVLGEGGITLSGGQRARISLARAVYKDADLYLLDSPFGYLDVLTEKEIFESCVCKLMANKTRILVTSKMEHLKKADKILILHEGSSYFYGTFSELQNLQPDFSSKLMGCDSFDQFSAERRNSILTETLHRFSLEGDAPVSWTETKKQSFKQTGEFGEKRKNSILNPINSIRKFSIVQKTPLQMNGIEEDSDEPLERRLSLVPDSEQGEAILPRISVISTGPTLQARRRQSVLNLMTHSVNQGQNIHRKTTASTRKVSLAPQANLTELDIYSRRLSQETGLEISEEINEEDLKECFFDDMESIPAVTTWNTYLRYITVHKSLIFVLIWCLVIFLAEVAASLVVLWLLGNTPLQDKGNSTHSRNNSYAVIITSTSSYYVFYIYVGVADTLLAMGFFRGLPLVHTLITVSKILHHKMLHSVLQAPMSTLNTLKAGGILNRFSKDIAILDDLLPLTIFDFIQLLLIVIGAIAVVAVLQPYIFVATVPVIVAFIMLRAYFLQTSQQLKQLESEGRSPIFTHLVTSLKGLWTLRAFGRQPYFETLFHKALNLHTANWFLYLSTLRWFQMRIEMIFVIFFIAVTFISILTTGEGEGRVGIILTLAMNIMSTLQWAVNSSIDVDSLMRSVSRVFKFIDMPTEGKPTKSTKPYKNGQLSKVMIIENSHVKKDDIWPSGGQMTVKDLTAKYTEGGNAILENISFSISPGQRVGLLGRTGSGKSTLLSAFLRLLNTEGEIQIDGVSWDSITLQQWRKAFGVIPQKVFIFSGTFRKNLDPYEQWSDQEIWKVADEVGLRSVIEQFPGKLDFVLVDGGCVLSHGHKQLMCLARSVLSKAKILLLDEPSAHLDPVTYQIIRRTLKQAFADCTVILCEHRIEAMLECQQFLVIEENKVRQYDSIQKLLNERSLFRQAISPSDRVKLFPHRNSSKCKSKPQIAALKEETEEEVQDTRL
The experiment in a line: Protocol 1: membrane potential optical assay (FLIPR III, voltage sensing dye), identification of potentiator compounds. In kind it is cell-based. The following applies: Table 3, compounds of Table 1. In short, it runs like this: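 NIH 3T3 fibroblasts stably expressing F508del were cultured at 27° C for 24 hrs for temperature correction, then treated with compounds or DMSO and loaded with a voltage-sensing redistribution dye. Forskolin added with a Cl⁻ gradient activated the channel; membrane-potential fluorescence on FLIPR III reported increased gating.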
For the molecule `CC(C)COc1cc(F)cc(-c2ccc(C(=O)NS(=O)(=O)N3CCC(F)(F)C3)c(N3C[C@@H](C)CC3(C)C)n2)c1` [Compound 1956, N-(3,3-difluoropyrrolidin-1-yl)sulfonyl-6-(3-fluoro-5-isobutoxy-phenyl)-2-[(4S)-2,2,4-trimethylpyrrolidin-1-yl]pyridine-3-carboxamide], the EC30 result is “+++ (“+++” means <3 uM)”.

For `COc1ccc(F)cc1-c1ccc(C(=O)NS(=O)(=O)c2ccc[nH]c2=O)c(N2C[C@@H](C)CC2(C)C)n1` [Compound 1830, 6-(5-fluoro-2-methoxy-phenyl)-N-[(2-oxo-1H-pyridin-3-yl)sulfonyl]-2-[(4S)-2,2,4-trimethylpyrrolidin-1-yl]pyridine-3-carboxamide], the EC30 entry is “+++ (“+++” means <3 uM)”.

Regarding `CC(C)COc1cc(F)cc(-c2ccc(C(=O)NS(=O)(=O)c3cccc(N)n3)c(N3[C@H](C)CCC3(C)C)n2)c1` [Compound 1166, N-[(6-amino-2-pyridyl)sulfonyl]-6-(3-fluoro-5-isobutoxy-phenyl)-2-[(5R)-2,2,5-trimethylpyrrolidin-1-yl]pyridine-3-carboxamide], the EC30 result is “+++ (“+++” means <3 uM)”.

In the case of `CC(Cc1ccccc1)Oc1nc(C(C)(C)C)ccc1C(=O)NS(=O)(=O)c1cccc(N)n1` (stereo not shown) [Compound 1314, N-[(6-amino-2-pyridyl)sulfonyl]-6-tert-butyl-2-(1-methyl-2-phenyl-ethoxy)pyridine-3-carboxamide], the EC30 entry is given as “+++ (“+++” means <3 uM)”.

`CC1CN(c2nc(C(C)(C)C)c(C3=CCN(C(=O)OCc4ccccc4)CC3)cc2C(=O)NS(=O)(=O)c2cccc(N)n2)C(C)(C)C1` (stereo not shown) [Compound 1404, benzyl 4-[5-[(6-amino-2-pyridyl)sulfonylcarbamoyl]-2-tert-butyl-6-(2,2,4-trimethylpyrrolidin-1-yl)-3-pyridyl]-3,6-dihydro-2H-pyridine-1-carboxylate]: the EC30 result is recorded as “+++ (“+++” means <3 uM)”.

Turning to `CC(C)Oc1ccc(C(=O)NS(=O)(=O)c2cccc(N)n2)c(N2C[C@@H](C)CC2(C)C)n1` [Compound 1573, N-[(6-amino-2-pyridyl)sulfonyl]-6-isopropoxy-2-[(4S)-2,2,4-trimethylpyrrolidin-1-yl]pyridine-3-carboxamide], the EC30 result was “+++ (“+++” means <3 uM)”.

Consider `Cc1cc(C)c(Oc2nc(C(C)(C)C)ccc2C(=O)NS(=O)(=O)c2ccnn2C)c(C)c1` [Compound 911, 6-tert-butyl-N-(2-methylpyrazol-3-yl)sulfonyl-2-(2,4,6-trimethylphenoxy)pyridine-3-carboxamide], for which the EC30 result is “+++ (“+++” means <3 uM)”.

Turning to `CC(=O)C1CCC(c2ccc(C(=O)NS(=O)(=O)c3cccc(N)n3)c(Oc3c(C)cc(C)cc3C)n2)CC1` (stereo not shown) [Compound 1631, 6-(4-acetylcyclohexyl)-N-[(6-amino-2-pyridyl)sulfonyl]-2-(2,4,6-trimethylphenoxy)pyridine-3-carboxamide], the EC30 result was “++ (“++” means between 3 uM and 10 uM)”.

With `Cc1cc(C)c(Oc2nc(C3=CC(C)(C)OC3(C)C)ccc2C(=O)NS(=O)(=O)c2cccc(N)n2)c(C)c1` [Compound 1609, N-[(6-amino-2-pyridyl)sulfonyl]-6-(2,2,5,5-tetramethyl-3-furyl)-2-(2,4,6-trimethylphenoxy)pyridine-3-carboxamide], the EC30 entry was “+++ (“+++” means <3 uM)”.

In the case of `CC(C)COc1cc(F)cc(-c2ccc(C(=O)NS(=O)(=O)c3cccc(N)n3)c(N3C[C@@H](C)C[C@H](C)C3)n2)c1` [Compound 1210, N-[(6-amino-2-pyridyl)sulfonyl]-2-[(3S,5S)-3,5-dimethyl-1-piperidyl]-6-(3-fluoro-5-isobutoxy-phenyl)pyridine-3-carboxamide], the EC30 result is reported as “+++ (“+++” means <3 uM)”.
